Measured values from PMC5094908 (Journal of applied toxicology : JAT, 2016).

Legend:
SH-SY5Y = conditions: cited from earlier work

With `O=c1c(O)c(-c2ccc(O)c(O)c2)oc2cc(O)cc(O)c12` [QRC, Quercetin] as the compound, how does the “In vitro neural selectivity (effect reported in SH-SY5Y)” value (SH-SY5Y) read?
Its value is “Toxic or protective in SH- SY5Y ([Ossola et al., 2008])”.

What about the “cytotoxic sensitivity ([ATP] IC50) of LUHMES and/or dLUHMES relative to the other cell lines” value (LUHMES and dLUHMES cells) of the same compound?
The value was “more sensitive than the other cell lines”.
